Test results reported in patent US11661403B2, “Oxadiazole compounds” (Vivace Therapeutics, Inc., priority 2018, dated 2023).

System: 8XTBD luciferase reporter (YAP) in HEK293T cells
Assay: YAP Reporter Assay
Format: cell-based
Conditions: Homo sapiens, HEK-293T, 24 h, read-out: Firefly Luciferase IC50 (μM)

Row | SMILES | IC50 [µM]
1 | CCOC(=O)C(O)(C(=O)OCC)c1nnc(-c2ccccc2Nc2ccc(C(F)(F)F)cc2)o1 [Compound 200, diethyl 2-hydroxy-2-(5-(2-((4-(trifluoromethyl)phenyl)amino)phenyl)-1,3,4-oxadiazol-2-yl)malonate] | 0.1 to 1

Same assay, conditions: Homo sapiens, HEK-293T; HEK293T cells stably transfected with 8XTBD luciferase reporter and pRLTK; 24-hr incubation; top concentration 3 μM; read-out: Firefly Luciferase IC50

Row | SMILES | IC50 [µM]
2 | OC(c1nnc(-c2ccccc2Nc2ccc(C(F)(F)F)cc2)o1)C(F)(F)F (stereo not drawn) [Compound 51, 2,2,2-trifluoro-1-(5-(2-((4-(trifluoromethyl)phenyl)amino)phenyl)-1,3,4-oxadiazol-2-yl)ethanol] | < 0.1
3 | N#CCNC(=O)c1nnc(-c2ccccc2Nc2ccc(C(F)(F)F)cc2)o1 [Compound 114, N-(cyanomethyl)-5-(2-((4-(trifluoromethyl)phenyl)amino)phenyl)-1,3,4-oxadiazole-2-carboxamide] | < 0.1
4 | N#CCCc1nnc(-c2ccccc2Nc2ccc(C(F)(F)F)cc2)o1 [Compound 126, 3-(5-(2-((4-(trifluoromethyl)phenyl)amino)phenyl)-1,3,4-oxadiazol-2-yl)propanenitrile] | 0.1 to 1
5 | OC1(c2nnc(-c3ccccc3Nc3ccc(C(F)(F)F)cc3)o2)COC1 [Compound 55, 3-(5-(2-((4-(trifluoromethyl)phenyl)amino)phenyl)-1,3,4-oxadiazol-2-yl)oxetan-3-ol] | < 0.1
6 | OCCc1nnc(-c2ccccc2Nc2ccc(C(F)(F)F)cc2)o1 [Compound 2, 2-(5-(2-((4-(trifluoromethyl)phenyl)amino)phenyl)-1,3,4-oxadiazol-2-yl)ethan-1-ol] | < 0.1
7 | C#CC(C)Oc1nnc(-c2ccccc2Nc2ccc(C(F)(F)F)cc2)o1 (stereo not drawn) [Compound 69, 2-(5-(but-3-yn-2-yloxy)-1,3,4-oxadiazol-2-yl)-N-(4-(trifluoromethyl)phenyl)aniline] | < 0.1
8 | C#CCCNC(=O)c1nnc(-c2ccccc2Nc2ccc(C(F)(F)F)cc2)o1 [Compound 115, N-(but-3-yn-1-yl)-5-(2-((4-(trifluoromethyl)phenyl)amino)phenyl)-1,3,4-oxadiazole-2-carboxamide] | < 0.1
9 | O=C(NO)c1nnc(-c2ccccc2Nc2ccc(C(F)(F)F)cc2)o1 [Compound 14, N-hydroxy-5-(2-((4-(trifluoromethyl)phenyl)amino)phenyl)-1,3,4-oxadiazole-2-carboxamide] | < 0.1
10 | CC(c1nnc(-c2ccccc2Nc2ccc(C(F)(F)F)cc2)o1)N(C)C#N (stereo not drawn) [Compound 161, N-methyl-N-(1-(5-(2-((4-(trifluoromethyl)phenyl)amino)phenyl)-1,3,4-oxadiazol-2-yl)ethyl)cyanamide] | < 0.1
11 | COC(=O)c1nnc(-c2ccccc2Nc2ccc(C(F)(F)F)cc2)o1 [Compound 8, methyl 5-(2-((4-(trifluoromethyl)phenyl)amino)phenyl)-1,3,4-oxadiazole-2-carboxylate] | 0.1 to 1
12 | CN(C#N)CCCc1nnc(-c2ccccc2Nc2ccc(C(F)(F)F)cc2)o1 [Compound 129, N-methyl-N-(3-(5-(2-((4-(trifluoromethyl)phenyl)amino)phenyl)-1,3,4-oxadiazol-2-yl)propyl)cyanamide] | < 0.1
13 | CCC(C)(O)c1nnc(-c2ccccc2Nc2ccc(C(F)(F)F)cc2)o1 (stereo not drawn) [Compound 135, 2-(5-(2-((4-(trifluoromethyl)phenyl)amino)phenyl)-1,3,4-oxadiazol-2-yl)butan-2-ol] | < 0.1
14 | FC(F)(F)c1ccc(Nc2ccccc2-c2nnc(C3CCCO3)o2)cc1 (stereo not drawn) [Compound 181, 2-(5-(tetrahydrofuran-2-yl)-1,3,4-oxadiazol-2-yl)-N-(4-(trifluoromethyl)phenyl)aniline] | 0.1 to 1
15 | CC(C)(C#N)c1nnc(-c2ccccc2Nc2ccc(C(F)(F)F)cc2)o1 [Compound 164, 2-methyl-2-(5-(2-((4-(trifluoromethyl)phenyl)amino)phenyl)-1,3,4-oxadiazol-2-yl)propanenitrile] | < 0.1
16 | OCCNc1nnc(-c2ccccc2Nc2ccc(C(F)(F)F)cc2)o1 [Compound 10, 2-((5-(2-((4-(trifluoromethyl)phenyl)amino)phenyl)-1,3,4-oxadiazol-2-yl)amino)ethan-1-ol] | 0.1 to 1
17 | N#CN1CCC(c2nnc(-c3ccccc3Nc3ccc(C(F)(F)F)cc3)o2)C1 (stereo not drawn) [Compound 177, 3-(5-(2-((4-(trifluoromethyl)phenyl)amino)phenyl)-1,3,4-oxadiazol-2-yl)pyrrolidine-1-carbonitrile] | 0.1 to 1
18 | CC(O)(CN)c1nnc(-c2ccccc2Nc2ccc(C(F)(F)F)cc2)o1 (stereo not drawn) [Compound 134, 1-amino-2-(5-(2-((4-(trifluoromethyl)phenyl)amino)phenyl)-1,3,4-oxadiazol-2-yl)propan-2-ol] | 0.1 to 1

Row | SMILES | IC50 [µM]
19 | O=C1NC(c2nnc(-c3ccccc3Nc3ccc(C(F)(F)F)cc3)o2)CO1 (stereo not drawn) [Compound 17, 4-(5-(2-((4-(trifluoromethyl)phenyl)amino)phenyl)-1,3,4-oxadiazol-2-yl)oxazolidin-2-one] | < 0.1
20 | CC1(c2nnc(-c3ccccc3Nc3ccc(C(F)(F)F)cc3)o2)COC1 [Compound 183, 2-(5-(3-methyloxetan-3-yl)-1,3,4-oxadiazol-2-yl)-N-(4-(trifluoromethyl)phenyl)aniline] | 0.1 to 1
21 | Nc1nnc(-c2ccccc2Nc2ccc(C(F)(F)F)cc2)o1 [Compound 4, 5-(2-((4-(trifluoromethyl)phenyl)amino)phenyl)-1,3,4-oxadiazol-2-amine] | 0.1 to 1
22 | NCCc1nnc(-c2ccccc2Nc2ccc(C(F)(F)F)cc2)o1 [Compound 104, 2-(5-(2-aminoethyl)-1,3,4-oxadiazol-2-yl)-N-(4-(trifluoromethyl)phenyl)aniline] | 1 to 5
23 | CC(C)(C)OC(=O)N1C(=O)OCC1c1nnc(-c2ccccc2Nc2ccc(C(F)(F)F)cc2)o1 (stereo not drawn) [Compound 26] | < 0.1
24 | CCOC(=O)c1nnc(-c2ccccc2Nc2ccc(C(F)(F)F)cc2)o1 [Compound 3, ethyl 5-(2-((4-(trifluoromethyl)phenyl)amino)phenyl)-1,3,4-oxadiazole-2-carboxylate] | < 0.1
25 | NC(=O)C1(c2nnc(-c3ccccc3Nc3ccc(C(F)(F)F)cc3)o2)CC1 [Compound 187, 1-(5-(2-((4-(trifluoromethyl)phenyl)amino)phenyl)-1,3,4-oxadiazol-2-yl)cyclopropane-1-carboxamide] | < 0.1
26 | C#CC(C)(C)c1nnc(-c2ccccc2Nc2ccc(C(F)(F)F)cc2)o1 [Compound 68, 2-(5-(2-methylbut-3-yn-2-yl)-1,3,4-oxadiazol-2-yl)-N-(4-(trifluoromethyl)phenyl)aniline] | < 0.1
27 | NC(=O)c1nnc(-c2ccccc2Nc2ccc(C(F)(F)F)cc2)o1 [Compound 15, 5-(2-((4-(trifluoromethyl)phenyl)amino)phenyl)-1,3,4-oxadiazole-2-carboxamide] | < 0.1
28 | CC(C)(c1nnc(-c2ccccc2Nc2ccc(C(F)(F)F)cc2)o1)S(C)(=O)=O [Compound 163, 2-(5-(2-(methylsulfonyl)propan-2-yl)-1,3,4-oxadiazol-2-yl)-N-(4-(trifluoromethyl)phenyl)aniline] | 0.1 to 1
29 | C/C=C/c1nnc(-c2ccccc2Nc2ccc(C(F)(F)F)cc2)o1 [Compound 117, (E)-2-(5-(prop-1-en-1-yl)-1,3,4-oxadiazol-2-yl)-N-(4-(trifluoromethyl)phenyl)aniline] | 0.1 to 1
30 | Cc1ccc(S(=O)(=O)OC(c2nnc(-c3ccccc3Nc3ccc(C(F)(F)F)cc3)o2)C(F)(F)F)cc1 (stereo not drawn) [Compound 46, 2,2,2-trifluoro-1-(5-(2-((4-(trifluoromethyl)phenyl)amino)phenyl)-1,3,4-oxadiazol-2-yl)ethyl 4-methylbenzenesulfonate] | 0.1 to 1
31 | CN(C#N)CCc1nnc(-c2ccccc2Nc2ccc(C(F)(F)F)cc2)o1 [Compound 174, N-methyl-N-(2-(5-(2-((4-(trifluoromethyl)phenyl)amino)phenyl)-1,3,4-oxadiazol-2-yl)ethyl)cyanamide] | < 0.1
32 | CN(Cc1nnc(-c2ccccc2Nc2ccc(C(F)(F)F)cc2)o1)C(=O)OC(C)(C)C [Compound 167, Tert-Butyl Methyl((5-(2-((4-(trifluoromethyl)phenyl)amino)phenyl)-1,3,4-oxadiazol-2-yl)methyl)carbamate] | 1 to 5
33 | CC(=O)c1nnc(-c2ccccc2Nc2ccc(C(F)(F)F)cc2)o1 [Compound 85, 1-(5-(2-((4-(trifluoromethyl)phenyl)amino)phenyl)-1,3,4-oxadiazol-2-yl)ethan-1-one] | < 0.1
34 | CNC(C)(C)c1nnc(-c2ccccc2Nc2ccc(C(F)(F)F)cc2)o1 [Compound 156, 2-(5-(2-(methylamino)propan-2-yl)-1,3,4-oxadiazol-2-yl)-N-(4-(trifluoromethyl)phenyl)aniline] | 0.1 to 1
35 | [N-]=[N+]=NCc1nnc(-c2ccccc2Nc2ccc(C(F)(F)F)cc2)o1 [Compound 31, 2-[5-(azidomethyl)-1,3,4-oxadiazol-2-yl]-N-[4-(trifluoromethyl)phenyl]aniline] | 0.1 to 1

Same assay, conditions: Homo sapiens, HEK-293T; […]; 24-hr incubation; top concentration 3 μM; read-out: Firefly Luciferase IC50

Row | SMILES | IC50 [µM]
36 | OC(CCl)Cc1nnc(-c2ccccc2Nc2ccc(C(F)(F)F)cc2)o1 (stereo not drawn) [Compound 79, 1-chloro-3-(5-(2-((4-(trifluoromethyl)phenyl)amino)phenyl)-1,3,4-oxadiazol-2-yl)propan-2-ol] | < 0.1
37 | CC(=O)NC1(c2nnc(-c3ccccc3Nc3ccc(C(F)(F)F)cc3)o2)CC1 [Compound 59, N-(1-(5-(2-((4-(trifluoromethyl)phenyl)amino)phenyl)-1,3,4-oxadiazol-2-yl)cyclopropyl)acetamide] | 0.1 to 1
38 | C#CCNC(=O)C(C)(C)c1nnc(-c2ccccc2Nc2ccc(C(F)(F)F)cc2)o1 [Compound 112, 2-methyl-N-(prop-2-yn-1-yl)-2-(5-(2-((4-(trifluoromethyl)phenyl)amino)phenyl)-1,3,4-oxadiazol-2-yl)propanamide] | 1 to 5
39 | CCNC(=O)c1nnc(-c2ccccc2Nc2ccc(C(F)(F)F)cc2)o1 [Compound 197, N-ethyl-5-(2-((4-(trifluoromethyl)phenyl)amino)phenyl)-1,3,4-oxadiazole-2-carboxamide] | < 0.1
